According to patent US7022696B2, “Piperazino-derivatives and their use as PDE4 inhibitor” (Altana Pharma AG, priority 2001, dated 2006):

Row | melting point | Compound
1 | 143 to 144 °C | CCOc1ccc(C2=NN(c3ccc(C(=O)N4CCN(C=O)CC4)cc3)C(=O)[C@@H]3CC=CC[C@H]23)cc1OCC [Compound 5, 4-(1-{4-[(4aS,8aR)-4-(3,4-Diethoxyphenyl)-1-oxo-4a,5,8,8a-tetrahydro-1H-phthalazin-2-yl]-phenyl}-methanoyl)-piperazine-1-carbaldehyde]
2 | 146 to 147 °C | CCOC(=O)N1CCN(C(=O)c2ccc(N3N=C(c4ccc(OCC)c(OCC)c4)[C@H]4CC=CC[C@H]4C3=O)cc2)CC1 [Compound 7, 4-(1-{4-[(4aS,8aR)-4-(3,4-Diethoxyphenyl)-1-oxo-4a,5,8,8a-tetrahydro-1H-phthalazin-2-yl]-phenyl}-methanoyl)-piperazine-1-carboxylic acid ethyl ester]
3 | 230 to 231 °C | COc1ccc(C2=NN(c3ccc(C(=O)N4CCN(C/C=C/c5ccccc5)CC4)cc3)C(=O)[C@@H]3CC=CC[C@H]23)c2c1OC(C)(C)C2.Cl [Compound 8, (4aS,8aR)-4-(7-methoxy-2,2-dimethyl-2,3-dihydro-benzofuran-4-yl)-2-(4-{1-[4-((E)-3-phenyl-allyl)-piperazin-1-yl]-methanoyl}-phenyl)-4a,5,8,8a-tetrahydro-2H-phthalazin-1-one hydrochloride]
4 | 138 to 140 °C | COc1ccc(C2=NN(c3ccc(C(=O)N4CCN(C(=O)c5ccco5)CC4)cc3)C(=O)C3CC=CCC23)c2c1OC(C)(C)C2 [Compound 9, (4aS,8aR)-2-(4-{1-[4-(1-furan-2-yl-methanoyl)-piperazin-1-yl]-methanoyl}-phenyl)-4-(7-methoxy-2,2-dimethyl-2,3-dihydrobenzofuran-4-yl)-4a,5,8,8a-tetrahydro-2-phthalazin-1-one]
5 | 185 to 186 °C | COc1ccc(C2=NN(c3ccc(C(=O)N4CCN(c5ccccc5)CC4)cc3)C(=O)[C@@H]3CC=CC[C@H]23)c2c1OC(C)(C)C2 [Compound 10, (4aS,8aR)-4-(7-Methoxy-2,2-dimethyl-2,3-dihydro-benzofuran-4-yl)-2-{4-[1-(4-phenyl-piperazin-1-yl)-methanoyl]-phenyl}-4a,5,8,8a-tetrahydro-2H-phthalazin-1-one]
6 | 262 °C (dec.) | COc1ccc(C2=NN(c3ccc(C(=O)N4CCN(CCCN(C)C)CC4)cc3)C(=O)[C@@H]3CC=CC[C@H]23)c2c1OC(C)(C)C2.Cl.Cl [Compound 11, (4aS,8aR)-2-(4-{1-[4-(3-Dimethylamino-propyl)-piperazin-1-yl]-methanoyl}-phenyl)-4-(7-methoxy-2,2-dimethyl-2,3-dihydro-benzofuran-4-yl)-4a,5,8,8a-tetrahydro-2H-phthalazin-1-one dihydrochloride]
7 | 148 to 151 °C | CCOc1ccc(C2=NN(c3ccc(C(=O)N4CCN(c5cnn(-c6ccccc6)c(=O)c5Cl)CC4)cc3)C(=O)[C@@H]3CC=CC[C@H]23)cc1OCC [Compound 12, (4aS,8aR)-2-{4-[4-(5-Chloro-6-oxo-1-phenyl-1,6-dihydro-pyridazin-4-yl)-piperazine-1-carbonyl]-phenyl}-4-(3,4-diethoxy-phenyl)-4a,5,8,8a-tetrahydro-2H-phthalazin-1-one]
8 | 223 to 226 °C | COc1ccc(C2=NN(c3ccc(C(=O)N4CCN(CCCN(C)C)CC4)cc3)C(=O)[C@@H]3CC=CC[C@H]23)cc1OC.Cl.Cl [Compound 13, (4aS,8aR)-4-(3,4-Dimethoxyphenyl)-2-(4-{1-[4-(3-dimethylamino-propyl)-piperazin-1-yl]-methanoyl}-phenyl)-4a,5,8,8a-tetrahydro-2H-phthalazin-1-one dihydrochloride]
9 | 137 to 139 °C | COc1ccc(C2=NN(c3ccc(C(=O)N4CCN(c5c(Cl)cncc5Cl)CC4)cc3)C(=O)[C@@H]3CC=CC[C@H]23)cc1OC [Compound 15, (4aS,8aR)-2-(4-{1-[4-(3,5-Dichloropyridin-4-yl)-piperazin-1-yl]-methanoyl}-phenyl)-4-(3,4-dimethoxyphenyl)-4a,5,8,8a-tetrahydro-2H-phthalazin-1-one]
10 | 168 to 169 °C | CCOc1ccc(C2=NN(c3ccc(C(=O)N4CCN(c5nc(-c6ccccc6)ns5)CC4)cc3)C(=O)[C@@H]3CC=CC[C@H]23)cc1OCC [Compound 17, (4aS,8aR)-4-(3,4-Diethoxyphenyl)-2-(4-{1-[4-(3-phenyl-1,2,4-thiadiazol-5-yl)-piperazin-1-yl]-methanoyl}-phenyl)-4a,5,8,8a-tetrahydro-2H-phthalazin-1-one]
11 | 115 to 118 °C | COc1ccc(C2=NN(c3ccc(C(=O)N4CCN(c5nc(-c6ccccc6C)ns5)CC4)cc3)C(=O)[C@@H]3CC=CC[C@H]23)cc1OC.Cl [Compound 19, (4aS,8aR)-4-(3,4-Dimethoxyphenyl)-2-(4-{1-[4-(3-o-tolyl-1,2,4-thiadiazol-5-yl)-piperazin-1-yl]-methanoyl}-phenyl)-4a,5,8,8a-tetrahydro-2H-phthalazin-1-one hydrochloride]
12 | 271 °C (dec.) | COc1ccc(C2=NN(c3ccc(C(=O)N4CCN(CCN5CCOCC5)CC4)cc3)C(=O)[C@@H]3CC=CC[C@H]23)c2c1OC(C)(C)C2.Cl.Cl [Compound 20, (4aS,8aR)-4-(7-Methoxy-2,2-dimethyl-2,3-dihydro-benzofuran-4-yl)-2-(4-{1-[4-(2-morpholin-4-yl-ethyl)-piperazin-1-yl]-methanoyl}-phenyl)-4a,5,8,8a-tetrahydro-2H-phthalazin-1-one dihydrochloride]
13 | 142 to 145 °C | CCOc1ccc(C2=NN(c3ccc(C(=O)N4CCN(c5cccc6[nH]ccc56)CC4)cc3)C(=O)[C@@H]3CC=CC[C@H]23)cc1OCC.Cl [Compound 21, (4aS,8aR)-4-(3,4-Diethoxy-phenyl)-2-(4-{1-[4-(1H-indol-4-yl)-piperazin-1-yl]-methanoyl}-phenyl)-4a,5,8,8a-tetrahydro-2H-phthalazin-1-one hydrochloride]
14 | 170 to 171 °C | CCOc1ccc(C2=NN(c3ccc(C(=O)N4CCN(CCCN5CCOCC5)CC4)cc3)C(=O)[C@@H]3CC=CC[C@H]23)cc1OCC.Cl.Cl [Compound 22, (4aS,8aR)-4-(3,4-Diethoxy-phenyl)-2-(4-{1-[4-(3-morpholin-4-yl-propyl)-piperazin-1-yl]-methanoyl}-phenyl)-4a,5,8,8a-tetrahydro-2H-phthalazin-1-one dihydrochloride]
15 | 131 to 133 °C | CCOc1ccc(C2=NN(c3ccc(C(=O)N4CCN(CC5CCCO5)CC4)cc3)C(=O)[C@@H]3CC=CC[C@H]23)cc1OCC.Cl (stereo partly drawn) [Compound 23, (4aS,8aR)-4-(3,4-Diethoxy-phenyl)-2-(4-{1-[4-(tetrahydro-furan-2-ylmethyl)-piperazin-1-yl]-methanoyl}-phenyl)-4a,5,8,8a-tetrahydro-2H-phthalazin-1-one hydrochloride]
16 | 185 to 186 °C | CCOc1ccc(C2=NN(c3ccc(C(=O)N4CCN(CCN5CCCC5)CC4)cc3)C(=O)[C@@H]3CC=CC[C@H]23)cc1OCC.Cl.Cl [Compound 24, (4aS,8aR)-4-(3,4-Diethoxy-phenyl)-2-(4-{1-[4-(2-pyrrolidin-1-yl-ethyl)-piperazin-1-yl]-methanoyl}-phenyl)-4a,5,8,8a-tetrahydro-2H-phthalazin-1-one dihydrochloride]
